Earlier results on seven compounds are cited in PMC9516332 (Frontiers in Oncology, 2022).

For data set [1], the target named is panel of 255 wild-type kinases (Homo sapiens, UniProt P07948). Conditions: kinase LYNa, 1 µmol/L single concentration, cited from earlier work.
The target in data set [2] is T1, panel of 255 wild-type kinases (Homo sapiens, UniProt Q06418).
T1 sequence (Q06418 41-890): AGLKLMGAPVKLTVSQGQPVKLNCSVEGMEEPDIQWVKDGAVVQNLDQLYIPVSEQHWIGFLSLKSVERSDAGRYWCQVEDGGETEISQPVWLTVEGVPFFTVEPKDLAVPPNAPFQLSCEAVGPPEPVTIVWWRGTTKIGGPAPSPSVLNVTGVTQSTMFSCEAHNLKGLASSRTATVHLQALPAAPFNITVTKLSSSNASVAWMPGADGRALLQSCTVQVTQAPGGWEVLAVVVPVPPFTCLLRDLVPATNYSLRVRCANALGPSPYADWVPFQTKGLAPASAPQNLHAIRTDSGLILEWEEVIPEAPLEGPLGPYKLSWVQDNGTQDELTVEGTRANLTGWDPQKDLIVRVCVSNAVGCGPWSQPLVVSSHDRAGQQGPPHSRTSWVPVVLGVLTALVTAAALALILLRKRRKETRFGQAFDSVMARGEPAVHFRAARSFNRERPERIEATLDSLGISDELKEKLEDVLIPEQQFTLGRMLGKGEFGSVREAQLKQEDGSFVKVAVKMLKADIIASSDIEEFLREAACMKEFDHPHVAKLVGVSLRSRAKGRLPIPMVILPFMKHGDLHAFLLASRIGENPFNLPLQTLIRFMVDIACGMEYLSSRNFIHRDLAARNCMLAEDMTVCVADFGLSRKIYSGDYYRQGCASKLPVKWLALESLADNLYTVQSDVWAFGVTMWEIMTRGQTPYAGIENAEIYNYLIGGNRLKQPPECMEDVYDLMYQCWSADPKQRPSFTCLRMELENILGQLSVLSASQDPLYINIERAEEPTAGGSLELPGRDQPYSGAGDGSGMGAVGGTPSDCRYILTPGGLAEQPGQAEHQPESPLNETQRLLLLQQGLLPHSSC
The note with it: kinase TYRO3, 1 µmol/L single concentration, cited from earlier work.

Data set [3] addresses panel of 255 wild-type kinases (Homo sapiens, UniProt P23443). The note with it: p70S6K, 1 µmol/L single concentration, cited from earlier work.
In data set [4] the target is panel of 255 wild-type kinases (Homo sapiens, UniProt O75676). The note with it: MSK2, 1 µmol/L single concentration, cited from earlier work.
In data set [5] the target is panel of 255 wild-type kinases (Homo sapiens, UniProt Q9P0L2). Conditions: MARK1, 1 µmol/L single concentration, cited from earlier work.
The target in data set [6] is T2, panel of 255 wild-type kinases (Homo sapiens, UniProt O14757).
T2 sequence (O14757 1-476): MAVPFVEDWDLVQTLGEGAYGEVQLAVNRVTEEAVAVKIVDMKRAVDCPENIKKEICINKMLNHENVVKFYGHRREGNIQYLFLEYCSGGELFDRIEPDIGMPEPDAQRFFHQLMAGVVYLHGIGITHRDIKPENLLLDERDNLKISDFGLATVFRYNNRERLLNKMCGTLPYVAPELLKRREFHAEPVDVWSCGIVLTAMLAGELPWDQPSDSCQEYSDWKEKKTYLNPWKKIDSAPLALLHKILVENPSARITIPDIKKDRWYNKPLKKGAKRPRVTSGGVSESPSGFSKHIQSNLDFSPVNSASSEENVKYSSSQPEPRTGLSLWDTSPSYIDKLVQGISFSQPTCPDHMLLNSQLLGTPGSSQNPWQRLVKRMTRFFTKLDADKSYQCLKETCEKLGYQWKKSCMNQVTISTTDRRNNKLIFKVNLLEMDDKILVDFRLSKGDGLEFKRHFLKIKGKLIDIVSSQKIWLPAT
The note with it: CHK1 kinase assay, 1 µmol/L single concentration, cited from earlier work.

Data set [7] concerns the target panel of 255 wild-type kinases (Homo sapiens, UniProt Q13557). Conditions: CaMK2δ kinase assay, 1 µmol/L single concentration, cited from earlier work.
In data set [8] the target is panel of 255 wild-type kinases (Homo sapiens, UniProt P53350). Conditions: kinase PLK1, 1 µmol/L single concentration, cited from earlier work.
Data set [9] concerns the target panel of 255 wild-type kinases (Homo sapiens, UniProt P22607). The note with it: kinase FGFR3, 1 µmol/L single concentration, cited from earlier work.
The target in data set [10] is panel of 255 wild-type kinases (Homo sapiens, UniProt Q96GD4). Conditions: AurB kinase assay, 1 µmol/L single concentration, cited from earlier work.
Data set [11] deals with T3, panel of 255 wild-type kinases (Homo sapiens, UniProt Q9HBY8).
T3 sequence (Q9HBY8 1-367): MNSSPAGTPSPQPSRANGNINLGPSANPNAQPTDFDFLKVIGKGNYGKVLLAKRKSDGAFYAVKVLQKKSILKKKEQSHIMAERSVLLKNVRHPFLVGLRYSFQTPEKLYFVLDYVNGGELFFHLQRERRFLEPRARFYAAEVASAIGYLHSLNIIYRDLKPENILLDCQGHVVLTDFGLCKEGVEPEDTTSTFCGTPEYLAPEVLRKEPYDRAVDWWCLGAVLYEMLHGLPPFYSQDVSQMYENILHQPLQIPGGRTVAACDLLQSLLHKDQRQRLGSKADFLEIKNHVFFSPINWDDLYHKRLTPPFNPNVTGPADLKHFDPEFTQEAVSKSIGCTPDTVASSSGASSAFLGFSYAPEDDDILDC
Conditions: kinase SGK2, 1 µmol/L single concentration, cited from earlier work.

Setting [12] is: ref DOI: 10.1158/1535-7163.MCT-18-0877.
[13] abbreviates: ref DOI: 10.1371/journal.pone.0092146.

Read-outs that look alike come from different tables or passages of the source.

As for `C=CC(=O)N1CCC[C@@H](n2nc(-c3ccc(Oc4ccccc4)cc3)c3c(N)ncnc32)C1` [ibrutinib], in data set [1] (setting [12]), the “%-inhibition at 1 µmol/L, LYNa” value is reported as 99%. Further, the “%-inhibition at 1 µmol/L, TYRO3” value in data set [2] (setting [12]) is given as 12%. Further, the “%-inhibition, p70S6K” value in data set [3] (setting [12]) is listed as 19%. In [4] (setting [12]), the “%-inhibition, MSK2” value is given as -2%. Moreover, the “%-inhibition, MARK1” value in data set [5] (setting [12]) is recorded as 2.46%. Besides, the “%-inhibition CHK1” value in data set [6] (setting [12]) was 10%. Further, the “%-inhibition CaMK2δ” value in data set [7] (setting [12]) was -0.826%. Also, in data set [8] (setting [12]), the “%-inhibition at 1 µmol/L, PLK1” value is -2.28%. Moreover, the “%-inhibition at 1 µmol/L, FGFR3” value in data set [9] (setting [12]) is listed as 82%. Besides, in [10] (setting [12]), the “%-inhibition AurB” value is on record as -1.1%.

`CC(=O)Nc1cccc(-n2c(=O)n(C3CC3)c(=O)c3c(Nc4ccc(I)cc4F)n(C)c(=O)c(C)c32)c1` [trametinib]: the “%-inhibition at 1 µmol/L, LYNa” value in data set [1] (setting [13]) is -1.74%. Moreover, the “%-inhibition at 1 µmol/L, TYRO3” value in data set [2] (setting [13]) is on record as -2.65%. Further, the “%-inhibition, p70S6K” value in data set [3] (setting [13]) is given as -1.39%. In addition, the “%-inhibition, MSK2” value in data set [4] (setting [13]) is given as -4.75%. In addition, the “%-inhibition, MARK1” value in data set [5] (setting [13]) was -17%. Moreover, the “%-inhibition CHK1” value in data set [6] (setting [13]) was -0.719%. The “%-inhibition CaMK2δ” value in [7] (setting [13]) is on record as -2.19%. For the same compound, the “%-inhibition at 1 µmol/L, PLK1” value in [8] (setting [13]) is reported as -9%. In addition, in data set [9] (setting [13]), the “%-inhibition at 1 µmol/L, FGFR3” value is -5.68%. Also, the “%-inhibition at 1 µmol/L, SGK2” value in data set [11] (setting [13]) is -7%. The “%-inhibition AurB” value in [10] (setting [13]) is given as -4%.

Turning to `Cc1cc(Nc2ncc(Cl)c(Nc3ccccc3S(=O)(=O)C(C)C)n2)c(OC(C)C)cc1C1CCNCC1` [ceritinib], in data set [1] (setting [12]), the “%-inhibition at 1 µmol/L, LYNa” value is given as 16%. In data set [2] (setting [12]), the “%-inhibition at 1 µmol/L, TYRO3” value is listed as 7%. The “%-inhibition, p70S6K” value in [3] (setting [12]) is given as 16%. The “%-inhibition, MSK2” value in data set [4] (setting [12]) was 2.2%. Further, the “%-inhibition, MARK1” value in data set [5] (setting [12]) is recorded as 8.55%. The “%-inhibition CHK1” value in data set [6] (setting [12]) was 1.32%. Moreover, the “%-inhibition CaMK2δ” value in data set [7] (setting [12]) is listed as 76%. Further, the “%-inhibition at 1 µmol/L, FGFR3” value in data set [9] (setting [12]) is 21%. The “%-inhibition at 1 µmol/L, SGK2” value in data set [11] (setting [12]) is -5.59%. In addition, the “%-inhibition AurB” value in data set [10] (setting [12]) is reported as 8%.

For `C[C@@H](Oc1cc(-c2cnn(C3CCNCC3)c2)cnc1N)c1c(Cl)ccc(F)c1Cl` [crizotinib], in data set [1] (setting [13]), the “%-inhibition at 1 µmol/L, LYNa” value is given as 42%. Also, the “%-inhibition, p70S6K” value in data set [3] (setting [13]) is 40%. Further, in [4] (setting [13]), the “%-inhibition, MSK2” value is reported as -1.8%. Besides, the “%-inhibition, MARK1” value in data set [5] (setting [13]) was 27%. Moreover, in [6] (setting [13]), the “%-inhibition CHK1” value is on record as 10%. Further, the “%-inhibition CaMK2δ” value in data set [7] (setting [13]) was 4%. For the same compound, the “%-inhibition at 1 µmol/L, PLK1” value in data set [8] (setting [13]) is -3%. The “%-inhibition at 1 µmol/L, FGFR3” value in data set [9] (setting [13]) is 43%. The “%-inhibition at 1 µmol/L, SGK2” value in [11] (setting [13]) was -2.31%.

For `C=CC(=O)Nc1cc(Nc2nccc(-c3cn(C)c4ccccc34)n2)c(OC)cc1N(C)CCN(C)C` [osimertinib], the “%-inhibition at 1 µmol/L, LYNa” value in data set [1] (setting [12]) is 0.63%. Besides, the “%-inhibition at 1 µmol/L, TYRO3” value in data set [2] (setting [12]) is 8%. For the same compound, the “%-inhibition, p70S6K” value in data set [3] (setting [12]) is 21%. In data set [4] (setting [12]), the “%-inhibition, MSK2” value is 0.681%. Also, in [5] (setting [12]), the “%-inhibition, MARK1” value is 19%. Also, the “%-inhibition CHK1” value in [6] (setting [12]) is on record as 11%. Besides, in data set [7] (setting [12]), the “%-inhibition CaMK2δ” value is 19%. Moreover, in data set [8] (setting [12]), the “%-inhibition at 1 µmol/L, PLK1” value is given as -0.476%. The “%-inhibition at 1 µmol/L, FGFR3” value in [9] (setting [12]) was 10%. The “%-inhibition at 1 µmol/L, SGK2” value in data set [11] (setting [12]) is reported as 26%. The “%-inhibition AurB” value in data set [10] (setting [12]) is listed as -1.24%.

On to `CC(C)(C)c1nc(-c2cccc(NS(=O)(=O)c3c(F)cccc3F)c2F)c(-c2ccnc(N)n2)s1` [dabrafenib], for which the “%-inhibition, MARK1” value in data set [5] (setting [13]) was -15%. Moreover, the “%-inhibition CaMK2δ” value in data set [7] (setting [13]) is listed as -0.23%. The “%-inhibition at 1 µmol/L, PLK1” value in data set [8] (setting [13]) was -9%. Moreover, the “%-inhibition at 1 µmol/L, FGFR3” value in data set [9] (setting [13]) is given as 4.27%. Besides, the “%-inhibition at 1 µmol/L, SGK2” value in data set [11] (setting [13]) is on record as -7.58%. Besides, in data set [10] (setting [13]), the “%-inhibition AurB” value is 39%.

For the compound `CO[C@@H]1[C@H](N(C)C(=O)c2ccccc2)C[C@H]2O[C@]1(C)n1c3ccccc3c3c4c(c5c6ccccc6n2c5c31)C(=O)NC4` [midostaurin], the “%-inhibition at 1 µmol/L, LYNa” value in data set [1] (setting [12]) is 90%. Further, the “%-inhibition at 1 µmol/L, TYRO3” value in data set [2] (setting [12]) is given as 31%. Besides, the “%-inhibition, p70S6K” value in [3] (setting [12]) is given as 82%. Besides, the “%-inhibition, MSK2” value in data set [4] (setting [12]) is given as 77%. Further, in data set [6] (setting [12]), the “%-inhibition CHK1” value is 68%. Moreover, the “%-inhibition at 1 µmol/L, PLK1” value in data set [8] (setting [12]) is reported as 6%. In addition, the “%-inhibition at 1 µmol/L, SGK2” value in data set [11] (setting [12]) is recorded as -0.775%. Further, in data set [10] (setting [12]), the “%-inhibition AurB” value is 86%.
